# In patent publication US20230279020A9, “CARM1 INHIBITORS AND USES THEREOF” (Epizyme, Inc., priority 2013, published 2023):
# Target: Human CARM1 (PRMT4) (Homo sapiens (Human), UniProt Q86X55)
# Assay: CARM1 enzyme assay on peptide substrate (3H-SAM Flashplate)
# Details: Biochemical potencies, classification codes; read-out: Biochem IC50
# Human CARM1 (PRMT4), sequence (Q86X55 other isoform, or with tags, fused parts or gaps isoform Q86X55-1): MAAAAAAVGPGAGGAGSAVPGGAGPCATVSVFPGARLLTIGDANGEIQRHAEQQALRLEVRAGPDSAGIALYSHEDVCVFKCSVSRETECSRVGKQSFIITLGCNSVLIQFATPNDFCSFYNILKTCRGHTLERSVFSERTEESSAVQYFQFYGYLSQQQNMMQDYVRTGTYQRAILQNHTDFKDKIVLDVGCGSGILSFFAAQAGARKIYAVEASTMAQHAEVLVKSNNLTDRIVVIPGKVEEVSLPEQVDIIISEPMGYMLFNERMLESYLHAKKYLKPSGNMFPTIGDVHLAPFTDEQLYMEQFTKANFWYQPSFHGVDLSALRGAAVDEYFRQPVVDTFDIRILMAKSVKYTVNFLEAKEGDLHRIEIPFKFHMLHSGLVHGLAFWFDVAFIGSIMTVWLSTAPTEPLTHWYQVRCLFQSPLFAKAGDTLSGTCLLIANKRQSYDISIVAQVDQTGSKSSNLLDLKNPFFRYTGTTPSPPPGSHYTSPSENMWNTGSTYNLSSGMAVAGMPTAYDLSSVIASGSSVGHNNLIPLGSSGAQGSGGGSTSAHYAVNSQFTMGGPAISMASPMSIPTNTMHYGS
row,SMILES,IC50
1,CNCC(O)COc1cccc(-c2nc(N[C@@H]3CCOC3)c(C)c(N3CCN(C4CC4)CC3)n2)c1 (stereo partly shown) [Example 436-1a],< 100 nM
2,CNCC(O)COc1cccc(-c2nc(N[C@@H]3CCOC3)c(C)c(N3CC[C@@H](O)C3)n2)c1 (stereo partly shown) [Example 437-1a],< 100 nM
3,CNCC(O)COc1cccc(-c2nc(N[C@@H]3CCOC3)c(C)c(N3CCN(C(C)=O)C(C)(C)C3)n2)c1 (stereo partly shown) [Example 439-1a],< 100 nM
4,CNCC(O)COc1cccc(-c2nc(N[C@@H]3CCOC3)c(C)c(N3C[C@H]4CNC[C@H]4C3)n2)c1 (stereo partly shown) [Example 440-1a],< 100 nM
5,CNCC(O)COc1cccc(-c2nc(N[C@@H]3CCOC3)c(C)c(N3CCC(S(C)(=O)=O)CC3)n2)c1 (stereo partly shown) [Example 441-1a],< 100 nM
6,CNCC(O)COc1cccc(-c2nc(NC3CCOC3)c(C)c(N3CC(N)CC(Cl)C3)n2)c1 (stereo not shown) [Example 442-1a],< 100 nM
7,CNCC(O)COc1cccc(-c2nc(N[C@@H]3CCOC3)c(C)c(N3C[C@H]4C[C@@H]3CN4C)n2)c1 (stereo partly shown) [Example 443-1a],< 100 nM
8,CNCC(O)COc1cccc(-c2nc(NC3CCOC3)c(C)c(N3CCN(CCF)CC3)n2)c1 (stereo not shown) [Example 446-1a],< 100 nM
9,CNCC(O)COc1cccc(-c2nc(NC3CCOC3)c(C)c(N3CCN(C(=O)OC)C(C)(C)C3)n2)c1 (stereo not shown) [Example 447-1a],< 100 nM
10,CCS(=O)(=O)N1CCN(c2nc(-c3cccc(OCC(O)CNC)c3)nc(NC3CCOC3)c2C)CC1(C)C (stereo not shown) [Example 448-1a],< 100 nM
11,CNCC(O)COc1cccc(-c2nc(NC3CCOC3)c(C)c(N3CCN(CC(F)(F)F)CC3)n2)c1 (stereo not shown) [Example 449-1a],< 100 nM
12,CNCC(O)COc1cccc(-c2nc(NC3CCOC3)c(C)c(N3CC4CC(C3)N4)n2)c1 (stereo not shown) [Example 452-1a],< 100 nM
13,CNCC(O)COc1cccc(-c2nc(NC3CCOC3)c(C)c(N3CCN4C(=O)OC[C@@H]4C3)n2)c1 (stereo partly shown) [Example 454-1a],< 100 nM
14,CNCC(O)COc1cccc(-c2nc(NC3CCOC3)c(C)c(N3CCN(C)C(C)(C)C3)n2)c1 (stereo not shown) [Example 455-1a],< 100 nM
15,CCOC(=O)N1CCN(c2nc(-c3cccc(OCC(O)CNC)c3)nc(N[C@@H]3CCOC3)c2C)CC1 (stereo partly shown) [Example 456-1a],< 100 nM
16,CNCC(O)COc1cccc(-c2nc(NC3CCOC3)c(C)c(N3CCN(CC(F)F)C(C)(C)C3)n2)c1 (stereo not shown) [Example 457-1a],< 100 nM
17,CNCC(O)COc1cccc(-c2nc(N[C@@H]3CCOC3)c(C)c(N3CCN(CC(F)F)CC3)n2)c1 (stereo partly shown) [Example 458-1a],< 100 nM
18,CNCC(O)COc1cccc(-c2nc(N[C@@H]3CCOC3)c(C)c(N3CCC(c4cccnc4)C3)n2)c1 (stereo partly shown) [Example 461-1a],< 100 nM
19,CNCC(O)COc1cccc(-c2nc(N[C@@H]3CCOC3)c(C)c(N3CCC4(CCOCC4)C3)n2)c1 (stereo partly shown) [Example 462-1a],< 100 nM
20,CNCC(O)COc1cccc(-c2nc(N[C@@H]3CCOC3)c(C)c(N3CCN(C)[C@H](C)C3)n2)c1 (stereo partly shown) [Example 463-1a],< 100 nM
21,CCS(=O)(=O)N1CCN(c2nc(-c3cccc(OCC(O)CNC)c3)nc(N[C@@H]3CCOC3)c2C)CC1 (stereo partly shown) [Example 464-1a],< 100 nM
22,CNCC(O)COc1cccc(-c2nc(N[C@@H]3CCOC3)c(C)c(N3Cc4nc(C)sc4C3)n2)c1 (stereo partly shown) [Example 465-1a],< 100 nM
23,CNCC(O)COc1cccc(-c2nc(N[C@@H]3CCOC3)c(C)c(N3CCN(C4CC4)[C@H](C)C3)n2)c1 (stereo partly shown) [Example 466-1a],< 100 nM
24,CNCC(O)COc1cccc(-c2nc(N[C@@H]3CCOC3)c(C)c(N3CC[C@@H](c4cccnc4)C3)n2)c1 (stereo partly shown) [Example 467-1a],< 100 nM

row,SMILES,IC50
1,CNCC(O)COc1cccc(-c2nc(N[C@@H]3CCOC3)c(C)c(N3CCC(n4nc(C)cc4C)C3)n2)c1 (stereo partly shown) [Example 468-1a],< 100 nM
2,CNCC(O)COc1cccc(-c2nc(N[C@@H]3CCOC3)c(C)c(N3CCCC4(CN(CC(F)F)C4)C3)n2)c1 (stereo partly shown) [Example 469-1a],< 100 nM
3,CCOC(=O)N1CCN(c2nc(-c3cccc(OCC(O)CNC)c3)nc(N[C@@H]3CCOC3)c2C)C[C@H]1C (stereo partly shown) [Example 470-1a],< 100 nM
4,CNCC(O)COc1cccc(-c2nc(N[C@@H]3CCOC3)c(C)c(N3CCN(CC(F)F)[C@H](C)C3)n2)c1 (stereo partly shown) [Example 471-1a],< 100 nM
5,CNCC(O)COc1cccc(-c2nc(N[C@@H]3CCOC3)c(C)c(N3CCC4(CN(CC(F)F)C4)C3)n2)c1 (stereo partly shown) [Example 475-1a],< 100 nM
6,CNCC(O)COc1cccc(-c2nc(-c3cnc4c(C(=O)OC)cnn4c3)cc(N(C)C3CCOCC3)n2)c1 (stereo not shown) [Example 482-1a],< 100 nM
7,CNCC(O)COc1cccc(-c2nc(-c3cn(S(C)(=O)=O)c4ncncc34)cc(N(C)C3CCOCC3)n2)c1 (stereo not shown) [Example 483-1a],< 100 nM
8,CNCC(O)COc1cccc(-c2nc(-c3cn(C)c4ncncc34)cc(N(C)C3CCOCC3)n2)c1 (stereo not shown) [Example 485-1a],< 100 nM
9,CNC[C@H](O)COc1cccc(-c2nc(-c3cnc4cnccn34)cc(N(C)C3CCOCC3)n2)c1 [Example 486-1a],< 100 nM
10,CNCC(O)COc1cccc(-c2nc(N(C)c3cncnc3)cc(N(C)C3CCOCC3)n2)c1 (stereo not shown) [Example 487-1a],< 100 nM
11,CNC[C@@H](O)COc1cccc(-c2nc(-c3cn(S(C)(=O)=O)c4ncncc34)c(C)c(N(C)C3CCOCC3)n2)c1 [Example 488-1a],< 100 nM
12,CNCC(O)COc1cccc(-c2nc(-c3cnc4ncccn34)cc(N(C)C3CCOCC3)n2)c1 (stereo not shown) [Example 489-1a],< 100 nM
13,CNCC(O)COc1cccc(-c2nc(-c3cnc4cnccn34)cc(N(C)C3CCOCC3)n2)c1 (stereo not shown) [Example 490-1a],< 100 nM
14,CNCC(O)COc1cccc(-c2nc(-c3ncc(C)n3C)cc(N(C)C3CCOCC3)n2)c1 (stereo not shown) [Example 491-1a],< 100 nM
15,CNCC(O)COc1cc(OC)cc(-c2nc(-c3cnc4cnccn34)cc(N(C)C3CCOCC3)n2)c1 (stereo not shown) [Example 492-1a],< 100 nM
16,CNCC(O)COc1cccc(-c2nc(-c3csnc3C)cc(N(C)C3CCOCC3)n2)c1 (stereo not shown) [Example 493-1a],< 100 nM
17,CNCC(O)COc1cccc(-c2nc(-c3scnc3C)cc(N(C)C3CCOCC3)n2)c1 (stereo not shown) [Example 495-1a],< 100 nM
18,CNCC(O)COc1cccc(-c2nc(-c3c(C)nn(C(C)C)c3C)cc(N(C)C3CCOCC3)n2)c1 (stereo not shown) [Example 496-1a],< 100 nM
19,CNCC(O)COc1cccc(-c2nc(-c3ccnc(C#N)c3)cc(N(C)C3CCOCC3)n2)c1 (stereo not shown) [Example 498-1a],< 100 nM
20,CNCC(O)COc1cccc(-c2nc(-c3ccc(S(C)(=O)=O)cc3)cc(N(C)C3CCOCC3)n2)c1 (stereo not shown) [Example 499-1a],< 100 nM
21,CNCC(O)COc1cccc(-c2nc(N3CCOCC3)c(F)c(N(C)C3CCOCC3)n2)c1 (stereo not shown) [Example 500-1a],< 100 nM
22,CNCC(O)COc1cccc(-c2nc(-c3cn(C)cn3)cc(N(C)C3CCOCC3)n2)c1 (stereo not shown) [Example 501-1a],< 100 nM
23,CNCC(O)COc1cccc(-c2nc(N3CCN(C)[C@@H](C)C3)cc(N(C)C3CCOCC3)n2)c1 (stereo partly shown) [Example 502-1a],< 100 nM
24,CNCC(O)COc1cccc(-c2nc(-c3ccnc(C(C)(C)O)c3)cc(N(C)C3CCOCC3)n2)c1 (stereo not shown) [Example 503-1a],< 100 nM

row,SMILES,IC50
1,CNCC(O)COc1cccc(-c2nc(-c3c[nH]c4ncncc34)cc(N(C)C3CCOCC3)n2)c1 (stereo not shown) [Example 504-1a],< 100 nM
2,CC[C@H]1CN(c2cc(N(C)C3CCOCC3)nc(-c3cccc(OCC(O)CNC)c3)n2)CCN1 (stereo partly shown) [Example 505-1a],< 100 nM
3,CNCC(O)COc1cc(Cl)cc(-c2nc(Nc3cncnc3)c(C)c(N(C)C3CCOCC3)n2)c1 (stereo not shown) [Example 506-1a],< 100 nM
4,CNC[C@@H](O)COc1cccc(-c2nc(-c3cnc4cnccn34)cc(N(C)C3CCOCC3)n2)c1 [Example 507-1a],< 100 nM
5,CNCC(O)COc1cc(Cl)cc(-c2nc(C(=O)NCC3CCOCC3)cc(N(C)C3CCOCC3)n2)c1 (stereo not shown) [Example 508-1a],< 100 nM
6,CNCC(O)COc1cccc(-c2nc(-c3ccnc(C(=O)NC)c3)cc(N(C)C3CCOCC3)n2)c1 (stereo not shown) [Example 510-1a],< 100 nM
7,CNC[C@@H](O)COc1cccc(-c2nc(-c3cn(S(C)(=O)=O)c4ncncc34)cc(N(C)C3CCOCC3)n2)c1 [Example 511-1a],< 100 nM
8,CNCC(O)COc1cccc(-c2nc(-c3ccc(N4CCOCC4)nn3)cc(N(C)C3CCOCC3)n2)c1 (stereo not shown) [Example 512-1a],< 100 nM
9,CNCC(O)COc1cccc(-c2nc(Nc3ncc(C)cn3)cc(N(C)C3CCOCC3)n2)c1 (stereo not shown) [Example 513-1a],< 100 nM
10,CNCC(O)COc1cccc(-c2nc(-c3cnc4c(C(=O)N(C)C)cnn4c3)cc(N(C)C3CCOCC3)n2)c1 (stereo not shown) [Example 514-1a],< 100 nM
11,CNCC(O)COc1cccc(-c2nc(-c3cnn(CC(C)C)c3)cc(N(C)C3CCOCC3)n2)c1 (stereo not shown) [Example 516-1a],< 100 nM
12,CNCC(O)COc1cccc(-c2nc(-c3cnc(C)n3C)cc(N(C)C3CCOCC3)n2)c1 (stereo not shown) [Example 517-1a],< 100 nM
13,CNCC(O)COc1cccc(-c2nc(-c3nc(C)cn3C)cc(N(C)C3CCOCC3)n2)c1 (stereo not shown) [Example 519-1a],< 100 nM
14,CNCC(O)COc1cccc(-c2nc(-c3nc(C)c[nH]3)cc(N(C)C3CCOCC3)n2)c1 (stereo not shown) [Example 521-1a],< 100 nM
15,CNCC(O)COc1cc(Cl)cc(-c2nc(-c3ccncc3C3CC3)cc(N(C)C3CCOCC3)n2)c1 (stereo not shown) [Example 522-1a],< 100 nM
16,CNCC(O)COc1cccc(-c2nc(N3CCO[C@H](CN)C3)cc(N(C)C3CCOCC3)n2)c1 (stereo partly shown) [Example 524-1a],< 100 nM
17,CNCC(O)COc1cccc(-c2nc(-c3cncnc3)cc(N(C)C3CCOCC3)n2)c1 (stereo not shown) [Example 525-1a],< 100 nM
18,CNC[C@@H](O)COc1cccc(-c2nc(-c3c[nH]c4ncncc34)c(C)c(N(C)C3CCOCC3)n2)c1 [Example 526-1a],< 100 nM
19,CNCC(O)COc1cccc(-c2nc(-c3c(C)nn(C)c3C)cc(N(C)C3CCOCC3)n2)c1 (stereo not shown) [Example 528-1a],< 100 nM
20,CNCC(O)COc1cccc(-c2nc(-c3cn(C)c(C)n3)cc(N(C)C3CCOCC3)n2)c1 (stereo not shown) [Example 529-1a],< 100 nM
21,CNCC(O)COc1cccc(-c2nc(N3CCN(C)CC3)cc(N(C)C3CCOCC3)n2)c1 (stereo not shown) [Example 531-1a],< 100 nM
22,CNCC(O)COc1cccc(-c2nc(-c3cnc4ncnn4c3)cc(N(C)C3CCOCC3)n2)c1 (stereo not shown) [Example 536-1a],< 100 nM
